Measured values: US8389739B1, “Modulators of retinoid-related orphan receptor gamma” (Orphagen Pharmaceuticals, priority 2006, dated 2013)

System: TH-17 cells
Assay: TH-17 cell frequency in lymph nodes of PLP-immunized SJL/J mice
Format: in vivo
Details: 100 mg/kg OR-1050 in HRC-6 daily, day 9 after PLP immunization; fraction of total CD4+ cells
Experimental: FIGS. 11D-F SJL/J mice were immunized with 75 μg PLP139-151 (Day 0). Osmotic pumps delivering vehicle or OR-1050 ([…]) were inserted at Days 3 and 4. Day of onset (FIG. 11E) compares the first day when EAE severity is 1 or higher. The ratio of Th-17 cells (CD4^+CD8^−IL17^+) to […] was analyzed in a separate study (F FIG. 11F) at day 9 after immunization with PLP where mice had been dosed daily with OR-1050 (100 mg/kg in HRC-6) since […]. Statistics (panels A, B, D, F) were performed by Student's t-test. *, P<0.05; #, P<0.01 (mean±sem, n=7-10) or by the Mann-Whitney rank order test (FIGS. 11C, E, median values shown).
Since OR-1050 inhibits TH-17 cells in ex vivo culture, we also investigated whether TH-17 cell frequency was affected in OR-1050-treated animals. SJL/J female mice (n=9/group) were treated with 100 mg/kg OR-1050 in HRC-6 beginning two days before immunization with PLP (as described above) and continuing until 8 days after immunization. Animals were sacrificed on day 9, and TH-17 cells analyzed from pooled axillary, brachial, and inguinal lymph nodes from each animal. We found a 35% reduction in TH-17 frequency in lymph nodes of SJL/J mice (FIG. 11F) as a fraction of the total CD4^+ cell population. The change in TH-17 frequency with OR-1050 treatment was statistically significant.

CCN(c1ccc(C(O)(C(F)(F)F)C(F)(F)F)cc1)S(=O)(=O)c1ccc([N+](=O)[O-])cc1 [OR-1050, N-Ethyl-4-nitro-N-[4-(2,2,2-trifluoro-1-hydroxy-1-trifluoromethyl-ethyl)-phenyl]-benzenesulfonamide]
reduction in TH-17 frequency in lymph nodes: 35%
